Entries after “also recorded” stand apart in the source; their conditions may differ. Where two headings read alike, the source gives them in different places.
Columns and labels:
BGT1 = target: T1, BGT1 (Homo sapiens, UniProt P48065); assay: FLIPR membrane potential (FMP) assay, CHO cells stably expressing BGT1; type: cell-based; settings: for Kb: Gaddum-Schild analysis; for Inhibitor activity: in the presence of GABA EC50 concentration ([…] µM); for Substrate activity (translocation by BGT1): tested as substrates, without GABA
T1 construct: expressed in transfected cells
T1 sequence (P48065 1-614): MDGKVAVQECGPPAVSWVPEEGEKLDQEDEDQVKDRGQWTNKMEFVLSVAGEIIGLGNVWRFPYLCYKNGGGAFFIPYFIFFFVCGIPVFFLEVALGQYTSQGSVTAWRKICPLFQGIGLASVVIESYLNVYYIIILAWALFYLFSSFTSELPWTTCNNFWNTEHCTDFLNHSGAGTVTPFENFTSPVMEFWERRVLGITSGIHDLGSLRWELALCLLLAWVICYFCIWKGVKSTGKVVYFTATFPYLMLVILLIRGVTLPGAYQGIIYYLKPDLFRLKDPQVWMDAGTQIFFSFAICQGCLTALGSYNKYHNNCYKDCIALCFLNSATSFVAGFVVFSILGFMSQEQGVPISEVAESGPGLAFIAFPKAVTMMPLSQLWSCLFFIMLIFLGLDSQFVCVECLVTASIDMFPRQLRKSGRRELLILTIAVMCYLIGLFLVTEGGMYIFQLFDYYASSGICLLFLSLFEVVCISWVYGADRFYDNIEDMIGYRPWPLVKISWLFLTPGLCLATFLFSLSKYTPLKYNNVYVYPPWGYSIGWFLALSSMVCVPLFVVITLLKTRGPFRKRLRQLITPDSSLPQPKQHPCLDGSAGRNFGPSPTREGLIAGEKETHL

[1] = target: T2, human α1β2γ2 GABAA receptors (Homo sapiens, UniProt P14867+P47870); assay: FMP assay at GABAA receptors in HEK293 cells; type: cell-based; settings: for Activity at α1β2γ2 GABAA receptors: 2 tested up to 100 µM
T2 construct: expressed in transfected cells
T2 sequence (P14867 28-456): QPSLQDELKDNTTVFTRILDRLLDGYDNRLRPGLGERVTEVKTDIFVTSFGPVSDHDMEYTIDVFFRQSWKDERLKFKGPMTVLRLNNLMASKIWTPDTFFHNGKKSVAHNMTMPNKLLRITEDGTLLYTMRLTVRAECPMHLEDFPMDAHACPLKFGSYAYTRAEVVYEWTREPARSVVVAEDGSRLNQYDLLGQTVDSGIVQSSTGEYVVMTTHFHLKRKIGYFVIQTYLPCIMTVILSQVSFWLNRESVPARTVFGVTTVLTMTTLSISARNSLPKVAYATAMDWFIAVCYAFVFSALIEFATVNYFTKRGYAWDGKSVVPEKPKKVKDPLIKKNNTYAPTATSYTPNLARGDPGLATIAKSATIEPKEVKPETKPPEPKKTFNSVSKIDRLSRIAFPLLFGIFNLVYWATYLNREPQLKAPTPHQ
T2 sequence (P47870 25-512 limits assumed): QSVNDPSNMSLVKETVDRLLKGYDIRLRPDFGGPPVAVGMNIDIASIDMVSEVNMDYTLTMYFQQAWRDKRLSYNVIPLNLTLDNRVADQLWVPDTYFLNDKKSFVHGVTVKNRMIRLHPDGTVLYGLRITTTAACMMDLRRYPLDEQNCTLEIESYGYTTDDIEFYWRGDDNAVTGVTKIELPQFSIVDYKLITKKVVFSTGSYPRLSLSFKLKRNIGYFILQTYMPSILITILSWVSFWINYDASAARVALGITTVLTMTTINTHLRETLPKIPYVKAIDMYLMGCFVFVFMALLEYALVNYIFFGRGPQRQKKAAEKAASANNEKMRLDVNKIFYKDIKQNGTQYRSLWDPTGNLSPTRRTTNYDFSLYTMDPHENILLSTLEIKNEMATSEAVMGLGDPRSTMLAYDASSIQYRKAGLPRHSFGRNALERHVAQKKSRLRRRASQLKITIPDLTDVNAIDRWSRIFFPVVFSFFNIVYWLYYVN
T2 sequence (P18507 40-475 partner): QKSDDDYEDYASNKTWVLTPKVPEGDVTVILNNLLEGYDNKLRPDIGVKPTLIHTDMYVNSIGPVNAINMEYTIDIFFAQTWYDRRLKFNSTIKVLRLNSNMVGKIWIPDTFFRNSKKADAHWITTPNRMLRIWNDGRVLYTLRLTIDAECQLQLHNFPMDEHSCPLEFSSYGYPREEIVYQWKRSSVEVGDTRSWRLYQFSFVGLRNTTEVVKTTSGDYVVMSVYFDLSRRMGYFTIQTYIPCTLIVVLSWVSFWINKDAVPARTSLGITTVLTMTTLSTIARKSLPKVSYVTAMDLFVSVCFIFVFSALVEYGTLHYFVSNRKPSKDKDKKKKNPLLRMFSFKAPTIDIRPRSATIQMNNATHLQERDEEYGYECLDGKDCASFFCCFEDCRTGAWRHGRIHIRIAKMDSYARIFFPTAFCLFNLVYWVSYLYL
Text: For this purpose we chose the major GABAA receptor subtype in the brain, α1β2γ2, and used the FMP assay for functional assessment as previously reported ([Falk-Petersen et al., 2020]). This assay detects changes in membrane potential for an average cell population through changes in fluorescence of a membrane pre-equilibrated fluorescent blue dye. It therefore provides an indirect measure of activity with the advantage of being able to discern between GAT substrates and inhibitors ([Kragholm et al., 2013]; [Al-Khawaja et al., 2014]; [Kickinger et al., 2020]).
The tsA201 cell line (a transformed HEK293 cell line), the Flp-In CHO cell lines stably expressing human (h) GATs and the HEK293 cell line stably expressing human α1β2γ2 GABAA receptors have been described previously and were cultured accordingly ([Al-Khawaja et al., 2014]; [Falk-Petersen et al., 2020]). […]
The FMP assay performed on human α1β2γ2 GABAA receptors in HEK293 cells was performed as described and data analyzed accordingly ([Falk-Petersen et al., 2020]). […] Test compound solutions were prepared at 4x concentration in assay buffer and added to ligand plates pre-heated at 37°C for 10–15 min in the FLEXstation3 plate reader (Molecular Devices). After incubation, 33.3 µL test compound solution (4x) was automatically transferred to each well in the cell plate and the signal was measured for 90 s by measuring emission at 560 nm caused by excitation at 530 nm. […] Data obtained in the FMP assay are given as relative changes in fluorescence units (ΔRFU) by subtracting the average of the baseline fluorescence signal from the peak fluorescence signal after compound addition. […] A Gaddum-Schild plot was performed according to the equation: log(dr-1) = log(B)+pA2, where B is the concentration of the inhibitor, pA2 is the negative logarithm of the dissociation constant KB, and the dose-ratio dr is equal to the EC′50/EC50, where EC′50 and EC50 are determined in the presence and absence of the different inhibitor concentrations, respectively. […]

Kb (BGT1; n = 4, read-out: KB)	Kb (BGT1; read-out: pKB (converted))	Preference for BGT1 over α1β2γ2 GABAA receptors (BGT1; according to the FMP data)	Schild slope (Gaddum-Schild analysis) (BGT1; co-applied with increasing concentrations of GABA, n = 4)	Inhibitor activity (BGT1)	Substrate activity (translocation by BGT1) (BGT1)	EC50 ([1]; agonist activity, HEK293 cells)	Structure (SMILES)	Activity at α1β2γ2 GABAA receptors [1]
470 nM	398 nM	13 times	1.02	behaved as inhibitors	no increase in fluorescence signals	5100 nM	N[C@@]12CC[C@H](C(=O)O)[C@@H]1C2 [bicyclo-GABA, (1S,2S,5R)-5-aminobicyclo[3.1.0]hexane-2-carboxylic acid]	low micromolar agonistic activity
–	–	–	–	behaved as inhibitors	no increase in fluorescence signals	–	CN[C@@]12CC[C@H](C(=O)O)[C@@H]1C2 [compound 2]	completely devoid of activity; also recorded: inactive
